From ChEMBL document CHEMBL6083263, “The Discovery of MORF-627, a Highly Selective Conformationally-Biased Zwitterionic Integrin αvβ6 Inhibitor for Fibrosis” (J Med Chem, 2024)

Legend:
Integrin alpha-V/beta-1 = Integrin alpha-V/beta-1 (Homo sapiens, UniProt P05556+P06756); assay: Displacement of fluorescein labeled ACRGDGWC from human Integrin alphaVbeta1 preincubated for 15 mins followed by fluorescein labeled ACRGDGWC addition and measured after 1 hr by fluorescence polarization assay; type: protein-complex assay
Integrin alpha-V/beta-6 [1] = molecular target: T1, Integrin alpha-V/beta-6 (Homo sapiens, UniProt P06756+P18564); assay: Displacement of fluorescein labeled GRGDLGRL from human Integrin alphaVbeta6 preincubated for 15 mins followed by fluorescein labeled GRGDLGRL addition and measured after 1 hr by fluorescence polarization assay; type: protein-complex assay
[2] = Octanol/water partition coefficient, logD of the compound; type: physicochemical
Integrin alpha-V/beta-8 = Integrin alpha-V/beta-8 (Homo sapiens, UniProt P06756+P26012); assay: Displacement of fluorescein labeled GRGDLGRL from human Integrin alphaVbeta8 preincubated for 15 mins followed by fluorescein labeled GRGDLGRL addition and measured after 1 hr by fluorescence polarization assay; type: protein-complex assay
Integrin alpha-V/beta-6 [3] = molecular target: T1, Integrin alpha-V/beta-6; assay: Binding affinity to human Integrin alphaVbeta6 overexpressed in HEK293 cells incubated for 15 mins in presence of human serum by flow cytometry assay; type: cell-based
[4] = Volume of distribution at steady state in Sprague-Dawley rat at 1 mg/kg, iv measured upto 24 hrs by LC/MS-MS analysis; type: ADME, organism-based; conditions: in vivo, read-out: Vdss
[5] = Oral bioavailability in Sprague-Dawley rat at 10 mg/kg measured upto 24 hrs by LC/MS-MS analysis; type: ADME, organism-based; conditions: in vivo
[6] = Clearance in Sprague-Dawley rat at 1 mg/kg, iv measured upto 24 hrs by LC/MS-MS analysis; type: ADME, organism-based; conditions: in vivo
[7] = Half-life in Sprague-Dawley rat at 1 mg/kg, iv measured upto 24 hrs by LC/MS-MS analysis; type: ADME, organism-based; conditions: in vivo
Homo sapiens [8] = species: Homo sapiens; assay: Selectivity ratio of IC50 for displacement of fluorescein labeled ACRGDGWC from human Integrin alphaVbeta1 to IC50 for displacement of fluorescein labeled GRGDLGRL from human Integrin alphaVbeta6
Homo sapiens [9] = species: Homo sapiens; assay: Selectivity ratio of IC50 for displacement of fluorescein labeled GRGDLGRL from human Integrin alphaVbeta8 to IC50 for displacement of fluorescein labeled GRGDLGRL from human Integrin alphaVbeta6

Integrin alpha-V/beta-1, sequence (P05556 21-798 limits assumed): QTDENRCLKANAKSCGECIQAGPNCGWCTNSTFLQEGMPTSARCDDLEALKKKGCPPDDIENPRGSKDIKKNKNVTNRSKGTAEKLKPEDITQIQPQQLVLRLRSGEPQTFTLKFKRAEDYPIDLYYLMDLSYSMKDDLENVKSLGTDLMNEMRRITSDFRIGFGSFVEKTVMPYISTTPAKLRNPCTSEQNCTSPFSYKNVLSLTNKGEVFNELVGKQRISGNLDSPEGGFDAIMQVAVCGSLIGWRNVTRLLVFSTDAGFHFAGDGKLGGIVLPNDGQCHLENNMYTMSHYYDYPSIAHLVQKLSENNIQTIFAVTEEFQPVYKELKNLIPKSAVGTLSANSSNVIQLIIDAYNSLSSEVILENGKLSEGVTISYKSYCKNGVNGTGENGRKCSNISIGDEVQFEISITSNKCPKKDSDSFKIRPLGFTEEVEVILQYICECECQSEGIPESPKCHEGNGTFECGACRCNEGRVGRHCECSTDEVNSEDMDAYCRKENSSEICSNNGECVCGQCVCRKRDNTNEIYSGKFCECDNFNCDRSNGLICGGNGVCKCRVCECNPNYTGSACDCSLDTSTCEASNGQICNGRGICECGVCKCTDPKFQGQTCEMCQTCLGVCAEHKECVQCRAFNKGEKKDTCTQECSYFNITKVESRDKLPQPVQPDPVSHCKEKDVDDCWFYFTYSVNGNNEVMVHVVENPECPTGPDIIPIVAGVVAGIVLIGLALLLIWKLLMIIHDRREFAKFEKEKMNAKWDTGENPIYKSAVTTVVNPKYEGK
Integrin alpha-V/beta-1, sequence (P06756 31-889 limits assumed): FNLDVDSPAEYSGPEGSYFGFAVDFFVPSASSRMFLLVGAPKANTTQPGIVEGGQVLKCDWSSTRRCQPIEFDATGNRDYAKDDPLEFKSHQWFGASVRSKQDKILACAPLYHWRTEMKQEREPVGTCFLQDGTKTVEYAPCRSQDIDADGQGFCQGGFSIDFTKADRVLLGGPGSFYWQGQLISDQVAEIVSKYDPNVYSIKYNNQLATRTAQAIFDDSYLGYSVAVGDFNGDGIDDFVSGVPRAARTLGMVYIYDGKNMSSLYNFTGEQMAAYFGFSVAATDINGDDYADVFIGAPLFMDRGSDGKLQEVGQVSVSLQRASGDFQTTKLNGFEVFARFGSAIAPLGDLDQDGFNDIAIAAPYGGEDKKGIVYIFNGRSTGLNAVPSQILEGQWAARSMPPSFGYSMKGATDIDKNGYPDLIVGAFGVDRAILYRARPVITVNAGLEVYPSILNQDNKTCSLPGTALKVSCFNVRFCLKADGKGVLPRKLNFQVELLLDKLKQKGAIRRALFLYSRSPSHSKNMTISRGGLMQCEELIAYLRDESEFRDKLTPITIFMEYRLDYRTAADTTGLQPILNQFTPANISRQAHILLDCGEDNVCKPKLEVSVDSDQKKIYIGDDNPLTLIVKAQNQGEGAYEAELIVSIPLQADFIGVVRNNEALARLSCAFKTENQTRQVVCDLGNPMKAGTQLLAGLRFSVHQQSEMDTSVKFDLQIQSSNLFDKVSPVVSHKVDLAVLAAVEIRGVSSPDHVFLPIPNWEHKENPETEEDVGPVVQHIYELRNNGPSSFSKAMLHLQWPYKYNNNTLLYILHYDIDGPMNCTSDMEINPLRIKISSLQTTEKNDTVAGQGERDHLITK
Integrin alpha-V/beta-1, sequence (P06756 891-1048 limits assumed): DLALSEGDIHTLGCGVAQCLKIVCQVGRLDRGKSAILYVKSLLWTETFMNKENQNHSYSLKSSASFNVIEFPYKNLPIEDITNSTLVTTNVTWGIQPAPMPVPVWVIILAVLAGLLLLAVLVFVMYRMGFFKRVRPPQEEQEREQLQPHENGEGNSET
T1 sequence (P06756 31-889 limits assumed): as the sequence (P06756 31-889 limits assumed) above
T1 sequence (P06756 891-1048 limits assumed): as the sequence (P06756 891-1048 limits assumed) above
T1 sequence (P18564 22-788 limits assumed): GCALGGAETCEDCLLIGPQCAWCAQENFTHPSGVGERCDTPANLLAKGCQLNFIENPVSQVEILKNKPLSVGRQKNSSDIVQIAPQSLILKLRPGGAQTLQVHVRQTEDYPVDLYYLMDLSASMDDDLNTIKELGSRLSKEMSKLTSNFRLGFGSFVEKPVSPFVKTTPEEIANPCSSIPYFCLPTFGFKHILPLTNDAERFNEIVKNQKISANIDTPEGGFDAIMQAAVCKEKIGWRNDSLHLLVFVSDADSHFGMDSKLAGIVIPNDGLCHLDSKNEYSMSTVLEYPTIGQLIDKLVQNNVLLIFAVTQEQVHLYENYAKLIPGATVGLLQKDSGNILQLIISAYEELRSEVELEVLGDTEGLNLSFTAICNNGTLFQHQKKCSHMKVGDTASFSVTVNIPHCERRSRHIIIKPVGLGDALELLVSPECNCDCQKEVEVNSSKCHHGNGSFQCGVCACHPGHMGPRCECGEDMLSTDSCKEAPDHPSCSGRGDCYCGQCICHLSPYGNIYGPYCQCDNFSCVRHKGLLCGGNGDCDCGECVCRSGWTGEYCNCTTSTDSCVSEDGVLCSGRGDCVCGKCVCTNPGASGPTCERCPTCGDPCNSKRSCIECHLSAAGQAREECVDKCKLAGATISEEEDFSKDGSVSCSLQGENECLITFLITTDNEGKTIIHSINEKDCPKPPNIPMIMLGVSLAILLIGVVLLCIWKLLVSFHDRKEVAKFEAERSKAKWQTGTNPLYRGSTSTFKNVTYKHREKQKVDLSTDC
Integrin alpha-V/beta-8, sequence (P06756 31-889 limits assumed): as the sequence (P06756 31-889 limits assumed) above
Integrin alpha-V/beta-8, sequence (P06756 891-1048 limits assumed): as the sequence (P06756 891-1048 limits assumed) above
Integrin alpha-V/beta-8, sequence (P26012 43-769 limits assumed): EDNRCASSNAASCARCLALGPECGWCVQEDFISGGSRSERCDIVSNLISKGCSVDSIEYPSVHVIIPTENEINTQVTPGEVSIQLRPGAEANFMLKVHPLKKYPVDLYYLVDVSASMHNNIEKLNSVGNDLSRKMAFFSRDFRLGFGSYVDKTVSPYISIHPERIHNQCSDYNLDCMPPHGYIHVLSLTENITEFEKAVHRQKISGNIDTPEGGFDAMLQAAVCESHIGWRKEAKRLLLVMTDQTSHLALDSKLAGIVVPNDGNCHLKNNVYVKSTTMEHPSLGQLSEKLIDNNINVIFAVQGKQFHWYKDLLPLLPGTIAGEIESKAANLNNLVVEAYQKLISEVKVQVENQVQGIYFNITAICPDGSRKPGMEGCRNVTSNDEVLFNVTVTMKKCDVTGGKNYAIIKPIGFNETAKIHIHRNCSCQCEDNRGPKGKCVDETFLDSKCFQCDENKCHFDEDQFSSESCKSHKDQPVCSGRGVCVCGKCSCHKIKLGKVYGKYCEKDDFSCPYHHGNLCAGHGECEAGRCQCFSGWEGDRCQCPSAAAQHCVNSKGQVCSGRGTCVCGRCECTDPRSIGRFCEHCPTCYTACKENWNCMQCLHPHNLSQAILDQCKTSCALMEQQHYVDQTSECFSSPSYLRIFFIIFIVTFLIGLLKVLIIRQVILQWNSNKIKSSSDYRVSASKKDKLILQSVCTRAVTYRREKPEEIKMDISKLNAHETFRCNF

IC50 (Integrin alpha-V/beta-1) [nM]	IC50 (Integrin alpha-V/beta-6 [1]) [nM]	logD [2]	IC50 (Integrin alpha-V/beta-8) [nM]	IC50 (Integrin alpha-V/beta-6 [3]) [nM]	Vd [4] [L/kg]	bioavailability [5] [%]	clearance [6] [mL/min/kg]	half-life [7] [h]	Ratio IC50 (Homo sapiens [8])	Ratio IC50 (Homo sapiens [9])	SMILES
27	0.7	2.4	7.7	–	–	–	–	–	–	–	O=C(O)[C@H](c1ccccc1C1CC1)N1CC[C@@H](Oc2ccc(Cc3ccc4c(n3)NCCC4)cc2)C1
9500	93	–	130	–	–	–	–	–	–	–	O=C(NCCCc1ccc2c(n1)NCCC2)[C@@H]1CCN([C@@H](C(=O)O)c2ccccc2)C1
130	8	1.7	130	–	–	–	–	–	–	–	O=C(O)[C@H](c1cc(F)ccc1[C@H]1CCCCO1)N1CC[C@@H](OCCCCc2ccc3c(n2)NCCC3)C1
4000	790	-0.6	–	–	–	–	–	–	–	–	O=C(O)CN1CC[C@@H](C(=O)NCCCc2ccc3c(n2)NCCC3)C1
96	4.6	1.4	55	–	–	–	–	–	–	–	O=C(O)[C@H](c1ccccc1C1CC1)N1CC[C@@H](OCCCCc2ccc3c(n2)NCCC3)C1
1600	4300	–	–	–	–	–	–	–	–	–	O=C(O)CN1CC[C@H](C(=O)NCCCc2ccc3c(n2)NCCC3)C1
690	0.5	2.6	140	41	2.4	25	30	1.2	–	–	CC1(C)CC[C@@H](c2ccc(F)cc2[C@@H](C(=O)O)N2CC[C@@H](OCCCCc3ccc4c(n3)NCCC4)C2)OC1
1100	13	1.7	180	–	–	–	–	–	–	–	O=C(O)[C@H](c1cccc(C2CC2)c1)N1CC[C@@H](OCCCCc2ccc3c(n2)NCCC3)C1
830	0.8	1.5	430	35	2.6	–	50	1.2	1100	560	CC1(C)CC[C@@H](c2ccccc2[C@@H](C(=O)O)N2CC[C@@H](OCCCCc3ccc4c(n3)NCCC4)C2)OC1
1900	37	0.4	78	–	–	–	–	–	> 50	–	O=C(NCCCc1ccc2c(n1)NCCC2)[C@@H]1CCN([C@H](C(=O)O)c2ccccc2)C1
110	2.8	1.1	190	90	–	–	–	–	–	–	O=C(O)[C@H](c1cc(F)ccc1[C@H]1CCOC1)N1CC[C@@H](OCCCCc2ccc3c(n2)NCCC3)C1
570	1.6	2.3	410	213	–	–	–	–	–	–	CC1(C)CCO[C@H](c2ccccc2[C@@H](C(=O)O)N2CC[C@@H](OCCCCc3ccc4c(n3)NCCC4)C2)C1
1600	12	1.7	300	–	–	–	–	–	–	–	O=C(O)[C@H](c1ccc(C2CC2)cc1)N1CC[C@@H](OCCCCc2ccc3c(n2)NCCC3)C1
3900	80	0.7	1100	–	–	–	–	–	–	–	O=C(O)[C@H](c1ccccc1)N1CC[C@@H](OCCCCc2ccc3c(n2)NCCC3)C1
120	7.8	1.3	100	128	–	–	–	–	–	–	O=C(O)[C@H](c1cc(F)ccc1C1CCOCC1)N1CC[C@@H](OCCCCc2ccc3c(n2)NCCC3)C1
300	25	1.2	180	–	–	–	–	–	–	–	O=C(O)[C@H](c1ccccc1C1CCCOC1)N1CC[C@@H](OCCCCc2ccc3c(n2)NCCC3)C1 (some centres not stated)
14000	4100	0.2	–	–	–	–	–	–	–	–	O=C(NCCCc1ccc2c(n1)NCCC2)C1CCN([C@H](C(=O)O)c2ccccc2)CC1
92	4	1.7	38	–	–	–	–	–	–	–	O=C(O)[C@H](c1cc(F)ccc1C1CC1)N1CC[C@@H](OCCCCc2ccc3c(n2)NCCC3)C1
170	4.1	1	83	–	–	–	–	–	–	–	O=C(O)[C@H](c1cc(F)ccc1[C@@H]1CCOC1)N1CC[C@@H](OCCCCc2ccc3c(n2)NCCC3)C1
87	1.6	–	74	16	2.7	38	29	1.5	> 50	> 50	O=C(O)[C@H](c1cc(F)ccc1[C@@H]1CCCCO1)N1CC[C@@H](OCCCCc2ccc3c(n2)NCCC3)C1
92	1.9	1.5	134	21	1.2	41	13	1.5	> 50	> 50	O=C(O)[C@H](c1cc(F)ccc1[C@@H]1CCCO1)N1CC[C@@H](OCCCCc2ccc3c(n2)NCCC3)C1
72	4.6	2.1	150	–	–	–	–	–	–	–	CC1(C)CCCC(c2ccccc2[C@@H](C(=O)O)N2CC[C@@H](OCCCCc3ccc4c(n3)NCCC4)C2)O1 (some centres not stated)
56	33	1.6	100	–	–	–	–	–	–	–	O=C(O)[C@H](c1ccccc1C1CC1)N1CC[C@@H](n2cc(CCc3ccc4c(n3)NCCC4)cn2)C1
650	1500	-0.5	370	–	–	–	–	–	–	–	O=C(O)CN1CCC(C(=O)NCCCc2ccc3c(n2)NCCC3)CC1
94	4.4	1.8	17	–	–	–	–	–	–	–	O=C(O)[C@H](c1ccccc1C1CC1)N1CC[C@@H](OCCCCCc2ccc3c(n2)NCCC3)C1
193	12	1.4	155	–	–	–	–	–	–	–	O=C(O)[C@H](c1cc(F)ccc1[C@H]1CCCO1)N1CC[C@@H](OCCCCc2ccc3c(n2)NCCC3)C1
30000	16000	–	–	–	–	–	–	–	–	–	O=C(NCCCc1ccc2c(n1)NCCC2)C1CCN([C@@H](C(=O)O)c2ccccc2)CC1
130	8.5	1.4	140	–	–	–	–	–	–	–	O=C(O)[C@H](c1ccccc1C1CC1)N1C[C@@H](F)[C@@H](OCCCCc2ccc3c(n2)NCCC3)C1
250	8.6	1.2	140	–	–	–	–	–	–	–	O=C(O)[C@H](c1ccccc1C1CC1)N1CC[C@@H](OCCCc2ccc3c(n2)NCCC3)C1
